Measured values from patent publication US20070191461A1, “USE OF BENZO-HETEROARYL SULFAMIDE DERIVATIVES FOR THE TREATMENT OF MIGRAINE” (priority 2006, published 2007).
Where “and” joins values, the source holds several entries; their conditions need not be identical. Equal values may be shown once.

Legend:
[1] = system: KCl-induced cortical spreading depression; details: historical positive control, 200 mg/kg/day i.p. for 4 weeks; saline vehicle 18; p<0.05; cited from earlier work
[2] = system: KCl-induced cortical spreading depression; assay: Cortical spreading depression (CSD) assay as model of migraine; type: in vivo, Sprague-Dawley rats; details: rats, 100 mg/kg/day p.o. for 35 days
Experimental: Cortical spreading depression (CSD) has been implicated in migraine and as a headache trigger, and can be evoked in experimental animals by electrical or chemical stimulation (Kunkler & Kraig, 2003; Lauritzen et al., 1982; Moskowitz, 1984).
(§1) Adult male Sprague-Dawley rats (250-600 g) were divided into two treatment groups: vehicle (0.5% methylcellulose; n=13) and Compound #1 (100 mg/kg/day, p.o.; n=7). Results were compared to historical positive controls with valproic acid at 200 mg/kg/day, i.p.
Vehicle or Compound #1 was administered orally once a day for 35 days. On the last day of treatment, rats continued to receive food and water ad libitum, and were given their daily oral dose of vehicle or Compound #1 approximately 1.5 h prior to CSD testing. Rats were anesthetized using isoflurane and intubated via a tracheotomy for mechanical ventilation. Body temperature, blood pressure and heart rate were monitored throughout the procedure to ensure homeostasis. […] The steady (DC) potential and electrocorticogram (EcoG) were recorded with glass micropipettes filled with 200 mM NaCl, […] below the dural surface. […] The number of KCL-induced CSDs was counted for 2 hours. Propagation speed was calculated from the distance (mm) between the recording electrodes 1 and 2, divided by the latency (min) between the CSDs recorded at these sites. […]

[3] = Body weight and systemic physiology monitoring during CSD testing; type: in vivo, Sprague-Dawley rats; details: rats, 100 mg/kg/day p.o. for 35 days
Experimental: as §1
Vehicle or Compound #1 was administered orally once a day for 35 days. On the last day of treatment, rats continued to receive food and water ad libitum, and were given their daily oral dose of vehicle or Compound #1 approximately 1.5 h prior to CSD testing. Rats were anesthetized using isoflurane and intubated via a tracheotomy for mechanical ventilation. Body temperature, blood pressure and heart rate were monitored throughout the procedure to ensure homeostasis. Rats were placed in a stereotaxic frame and three burr holes were drilled under saline cooling over the right hemisphere at the following coordinates (mm from bregma): (1) posterior 4.5, lateral 2.0 (occipital cortex): KCL application; (2) posterior 0.5, lateral 2.0 (parietal cortex): recording site 1; (3) anterior 2, lateral 2 (frontal cortex): recording site 2. Dura overlying the occipital cortex was gently removed. The steady (DC) potential and electrocorticogram (EcoG) were recorded with glass micropipettes filled with 200 mM NaCl, […] below the dural surface. An Ag/AgCl reference electrode was placed subcutaneously in the neck. Following surgical preparation, the cortex was allowed to recover for 30 minutes under saline irrigation. Cortical spreading depressions were initiated by placing a cotton ball soaked with 1 M KCl on the pial surface. The number of KCL-induced CSDs was counted for 2 hours. Propagation speed was calculated from the distance (mm) between the recording electrodes 1 and 2, divided by the latency (min) between the CSDs recorded at these sites.

SMILES	Number of cortical spreading depressions [1]	Propagation Speed ([2]; KCl-induced CSD, vehicle 3.2 ± 1, p=0.06) [mm/min]	CSDs (2 h) ≧5 mV (number of KCl-induced cortical spreading depressions) ([2]; last dose approx. 1.5 h before testing, topical 1 M KCl, counted for 2 hours, vehicle 16 ± 3, p=0.12)	Physiological monitoring, including arterial pH, pCO2, pO2 and blood pressure, versus vehicle [3]	Systemic Physiology: BP (blood pressure) ([3]; during CSD testing)	Systemic Physiology: pCO2 ([3]; during CSD testing)	Systemic Physiology: pH (arterial) ([3]; during CSD testing)	Systemic Physiology: pO2 ([3]; during CSD testing)
CCCC(CCC)C(=O)O [valproate, valproic acid]	12	–	–	–	–	–	–	–
NS(=O)(=O)NCc1csc2ccccc12 [Compound #1, N-(benzo[b]thien-3-ylmethyl)-sulfamide]	–	2.8 ± 0.3	12 and 12 ± 5	did not differ between the groups	102 ± 6	42 ± 6	7.4 ± 0.05	154 ± 23
